Results taken from US4540700A, “Treatment of diabetic complications with certain spiro-imidazolidine-diones” (Alcon Laboratories, Inc., priority 1984, dated 1985).

Test system: cataract formation in galactocemic rats
Experiment: in vivo dose response by intubation (per oral) in galactocemic rats, cataract (vacuole) formation
Set-up: species or system Charles River CD (Sprague-Dawley derived) male rats
Settings: for Relative Potency (antilog) / log relative potency for eyes with vacuoles or more advanced cataracts: observation day 12, 95% confidence limits
Experimental: B. In vivo dose response studies were conducted to test the in vivo activity of the following compounds by intubation (per oral) in galactocemic rats on a 30% galactose diet previously described:
Stock suspensions of the test compounds and all dilutions of the compound were formulated with 0.03% by weight Tween 80.
Healthy, Charles River CD (outbred albino, Sprague-Dawley derived) male rats, aged 20-30 days, without observable ocular defects and ranging in weight from 35-45 grams, were acclimated to experimental conditions (in quarantine) for two days prior to beginning the study.
Rats were individually assigned to one of twenty-three groups according to a random number schedule. Two rats, belonging to the same drug-diet treatment group, were housed per cage. Treatment and control groups consisted of six (6) rats each with no replacement in the event of death, and were designated as follows:
Lenses of all eyes were examined with a hand-held ophthalmoscope in the early stages of cataract development and a penlight for the stages, snowflake-like, snowflake, and nuclear cataract. Lens grading occurred every day for the first ten study days, and then every other day until study Day 14.
The relative potency determination was made at 7 drug levels over half log dose intervals. The response (percent cataracts formed and/or the time to cataract formation) was plotted against mg/kg and/or moles/kg.
The study was directed to the suppression and/or elimination of the initial stages of cataract development characterized by vacuoles or snowflake-likeopacities only. It was assumed therefore that suppression and/or elimination of vacuoles or lens opacification by the test drugs affects the transport, absorption and/or metabolism of galactose in such a manner as to prevent subsequent osmotic disturbances normally leading to tissue degeneration and advanced cataract. Advanced cataract defined as stages 2-4 of the Sipple classification was assumed to be of secondary importance to the etiology of cataract inhibition.
In the event where cataract stage other than vacuole formed, such as snowflake-like opacities, this cataract was counted similarly as vacuole in percent cataract formation.
This study yielded this expected effect in the control groups.
All animals were fed Purina Laboratory Chow and water, ad libitum, for the two day acclimation period. All drugs were dosed orally by intubation using an animal feeding needle (Popper and Sons), 18 or 20 gauge, attached to a 1 or 3 ml syringe. Once the dosing time schedule was established, the schedule was followed throughout the study to compensate for any diurnal variation.
The animals were kept on a twelve hour day/night cycle. The temperature and humidity were determined each day at the scheduled dosing time of 1:00 p.m.
The animals were weighed every other day and adjustments to dosage amounts to compensate for weight gain were made each day prior to the dose time. All food was routinely withheld from all animal groups for four hours (9:00 a.m.) prior to the drug dose and restored two hours (3:00 p.m.) post-dose. Otherwise sufficient amounts of chow or diet mixture were maintained in the food hopper to allow the animals to eat ad libitum. There were two days of drug dosage with the animals remaining on Purina Laboratory Chow (Days 1 and 2). The 30% galactose diet mixture was introduced to the animals two hours post-dose on Day 3 which constituted Day 1 of the study.
All eyes were examined with a hand-held ophthalmoscope and/or penlight at the times designated in the Experimental Design section.
It has been found in previous studies that dilation of the eye with a mydriactic (i.e. Mydriacyl) is not necessary for accurate grading, due to the semi-transparent nature of the rat iris. In the early stages (i.e., grades -, ±, and +) the lens was observed by reflecting the ophthalmoscope beam off the retina back through the lens and iris. Using this technique, vacuoles appear as dark, almost opaque patches. […]

## O=C1NC(=O)C2(N1)c1cc(F)ccc1-c1ccc(F)cc12 [M, Spiro-[2,7-difluorofluoren-9,4'-imidazolidine]-2',5'-dione]
4.0 mg/kg p.o., Day 9
  Percent of Rat Eyes With at Least Vacuoles Formed: 0.0%
4.0 mg/kg p.o., Day 9, listed as 2,7-difluoro
  Percent of Rat Eyes With at Least Vacuoles Formed: 0%
4.0 mg/kg p.o., Day 10
  Percent of Rat Eyes With at Least Vacuoles Formed: 0.0%
4.0 mg/kg p.o., Day 10, listed as 2,7-difluoro
  Percent of Rat Eyes With at Least Vacuoles Formed: 0%
4.0 mg/kg p.o., Day 12
  Percent of Rat Eyes With at Least Vacuoles Formed: 0.0%
4.0 mg/kg p.o., Day 12, listed as 2,7-difluoro
  Percent of Rat Eyes With at Least Vacuoles Formed: 0%
4.0 mg/kg p.o., Day 14
  Percent of Rat Eyes With at Least Vacuoles Formed: 0.0%
4.0 mg/kg p.o., Day 14, listed as 2,7-difluoro
  Percent of Rat Eyes With at Least Vacuoles Formed: 0%
12.6 mg/kg p.o., Day 0
  Percent of Rat Eyes With at Least Vacuoles Formed: 0%
12.6 mg/kg p.o., Day 1
  Percent of Rat Eyes With at Least Vacuoles Formed: 0%
12.6 mg/kg p.o., Day 2
  Percent of Rat Eyes With at Least Vacuoles Formed: 0%
12.6 mg/kg p.o., Day 3
  Percent of Rat Eyes With at Least Vacuoles Formed: 0%
12.6 mg/kg p.o., Day 4
  Percent of Rat Eyes With at Least Vacuoles Formed: 0%
12.6 mg/kg p.o., Day 5
  Percent of Rat Eyes With at Least Vacuoles Formed: 0%
12.6 mg/kg p.o., Day 6
  Percent of Rat Eyes With at Least Vacuoles Formed: 0.0%
12.6 mg/kg p.o., Day 6, listed as 2,7-difluoro
  Percent of Rat Eyes With at Least Vacuoles Formed: 0%
12.6 mg/kg p.o., Day 7
  Percent of Rat Eyes With at Least Vacuoles Formed: 0.0%
12.6 mg/kg p.o., Day 7, listed as 2,7-difluoro
  Percent of Rat Eyes With at Least Vacuoles Formed: 0%
12.6 mg/kg p.o., Day 8
  Percent of Rat Eyes With at Least Vacuoles Formed: 0.0%
12.6 mg/kg p.o., Day 8, listed as 2,7-difluoro
  Percent of Rat Eyes With at Least Vacuoles Formed: 0%
12.6 mg/kg p.o., Day 9
  Percent of Rat Eyes With at Least Vacuoles Formed: 0.0%
12.6 mg/kg p.o., Day 9, listed as 2,7-difluoro
  Percent of Rat Eyes With at Least Vacuoles Formed: 0%
12.6 mg/kg p.o., Day 10
  Percent of Rat Eyes With at Least Vacuoles Formed: 0.0%
12.6 mg/kg p.o., Day 10, listed as 2,7-difluoro
  Percent of Rat Eyes With at Least Vacuoles Formed: 0%
12.6 mg/kg p.o., Day 12
  Percent of Rat Eyes With at Least Vacuoles Formed: 0.0%
12.6 mg/kg p.o., Day 12, listed as 2,7-difluoro
  Percent of Rat Eyes With at Least Vacuoles Formed: 0%
12.6 mg/kg p.o., Day 14
  Percent of Rat Eyes With at Least Vacuoles Formed: 0.0%
12.6 mg/kg p.o., Day 14, listed as 2,7-difluoro
  Percent of Rat Eyes With at Least Vacuoles Formed: 0%
40 mg/kg p.o., Day 0
  Percent of Rat Eyes With at Least Vacuoles Formed: 0%
40 mg/kg p.o., Day 1
  Percent of Rat Eyes With at Least Vacuoles Formed: 0%
40 mg/kg p.o., Day 2
  Percent of Rat Eyes With at Least Vacuoles Formed: 0%
40 mg/kg p.o., Day 3
  Percent of Rat Eyes With at Least Vacuoles Formed: 0%
40 mg/kg p.o., Day 4
  Percent of Rat Eyes With at Least Vacuoles Formed: 0%
40 mg/kg p.o., Day 5
  Percent of Rat Eyes With at Least Vacuoles Formed: 0%
40 mg/kg p.o., Day 6
  Percent of Rat Eyes With at Least Vacuoles Formed: 0.0%
40 mg/kg p.o., Day 6, listed as 2,7-difluoro
  Percent of Rat Eyes With at Least Vacuoles Formed: 0%
40 mg/kg p.o., Day 7
  Percent of Rat Eyes With at Least Vacuoles Formed: 0.0%
40 mg/kg p.o., Day 7, listed as 2,7-difluoro
  Percent of Rat Eyes With at Least Vacuoles Formed: 0%
40 mg/kg p.o., Day 8
  Percent of Rat Eyes With at Least Vacuoles Formed: 0.0%
40 mg/kg p.o., Day 8, listed as 2,7-difluoro
  Percent of Rat Eyes With at Least Vacuoles Formed: 0%
40 mg/kg p.o., Day 9
  Percent of Rat Eyes With at Least Vacuoles Formed: 0.0%
40 mg/kg p.o., Day 9, listed as 2,7-difluoro
  Percent of Rat Eyes With at Least Vacuoles Formed: 0%
40 mg/kg p.o., Day 10
  Percent of Rat Eyes With at Least Vacuoles Formed: 0.0%
40 mg/kg p.o., Day 10, listed as 2,7-difluoro
  Percent of Rat Eyes With at Least Vacuoles Formed: 0%
40 mg/kg p.o., Day 12
  Percent of Rat Eyes With at Least Vacuoles Formed: 0.0%
40 mg/kg p.o., Day 12, listed as 2,7-difluoro
  Percent of Rat Eyes With at Least Vacuoles Formed: 0%
40 mg/kg p.o., Day 14
  Percent of Rat Eyes With at Least Vacuoles Formed: 0.0%
40 mg/kg p.o., Day 14, listed as 2,7-difluoro
  Percent of Rat Eyes With at Least Vacuoles Formed: 0%
Rat studies
  activity in vivo relative to the Sarges compound: unexpectedly and significantly more active
Relative to 2-fluoro (L)
  Relative Potency (antilog): 2.80
  log relative potency for eyes with vacuoles or more advanced cataracts: 0.4473
Relative to Sarges Racemic
  Relative Potency (antilog): 12.92
  log relative potency for eyes with vacuoles or more advanced cataracts: 1.1114
